Experimental data as given in PubChem BioAssay AID1845199 (Molecular Pharmacology Branch, DTP, NCI, 2023).

Tested on: 556581-035-R-J1 tumor spheroid viability, % test/control
Experiment: Anticancer human tumor 556581-035-R-J1 patient-derived ovarian carcinoma cell line growth inhibition
Conditions: spheroids with HUVEC and MSC; for IC50: curve of first compound; for viability, T/C: stronger effect = lower value
Summary of the method: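 Complex tumor spheroids combined malignant cells with endothelial cells and mesenchymal stem cells. DNA-damaging drugs and DNA repair inhibitors were tested alone and in combination, at half-log dilutions down from clinical Cmax (top 10 microM if Cmax unknown), 0.25% DMSO final.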

[1] = second compound 1 µM, first compound 0.0316 µM
[2] = second compound 1 µM, first compound 0.1 µM
[3] = second compound 1 µM, first compound 0.316 µM
[4] = second compound 1 µM, first compound 1 µM
[5] = second compound 1 µM, first compound 3.16 µM
[6] = second compound 1 µM, first compound 10 µM
[7] = second compound 3.16 µM, first compound 0.0316 µM
[8] = second compound 3.16 µM, first compound 0.1 µM
[9] = second compound 3.16 µM, first compound 0.316 µM
[10] = second compound 3.16 µM, first compound 1 µM
[11] = second compound 3.16 µM, first compound 3.16 µM
[12] = second compound 3.16 µM, first compound 10 µM
[13] = second compound 10 µM, first compound 0.0316 µM
[14] = second compound 10 µM, first compound 0.1 µM
[15] = second compound 10 µM, first compound 0.316 µM
[16] = second compound 10 µM, first compound 1 µM
[17] = second compound 10 µM, first compound 3.16 µM
[18] = second compound 10 µM, first compound 10 µM
[19] = second compound 31.6 µM, first compound 0.0316 µM
[20] = second compound 31.6 µM, first compound 0.1 µM
[21] = second compound 31.6 µM, first compound 0.316 µM
[22] = second compound 31.6 µM, first compound 1 µM
[23] = second compound 31.6 µM, first compound 3.16 µM
[24] = second compound 31.6 µM, first compound 10 µM
[25] = second compound 100 µM, first compound 0.0316 µM
[26] = second compound 100 µM, first compound 0.1 µM
[27] = second compound 100 µM, first compound 0.316 µM
[28] = second compound 100 µM, first compound 1 µM
[29] = second compound 100 µM, first compound 3.16 µM
[30] = second compound 100 µM, first compound 10 µM
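Also: spheroids exposed to compounds for 7 days before viability read.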

SMILES | IC50 (second compound 1 µM) [µM] | IC50 (second compound 3.16 µM) [µM] | IC50 (second compound 10 µM) [µM] | IC50 (second compound 31.6 µM) [µM] | IC50 (second compound 100 µM) [µM] | viability, T/C [1] [%] | viability, T/C [2] [%] | viability, T/C [3] [%] | viability, T/C [4] [%] | viability, T/C [5] [%] | viability, T/C [6] [%] | viability, T/C [7] [%] | viability, T/C [8] [%] | viability, T/C [9] [%] | viability, T/C [10] [%] | viability, T/C [11] [%] | viability, T/C [12] [%] | viability, T/C [13] [%] | viability, T/C [14] [%] | viability, T/C [15] [%] | other results
CC(C)n1c(=O)n(C)c2cnc3cc(F)c(-c4ccc(OCCCN5CCCCC5)nc4)cc3c21 + Cn1nnc2c(C(N)=O)ncn2c1=O | > 10 | > 10 | > 10 | > 10 | > 10 | 109 | 109 | 109 | 106 | 98.5 | 70.2 | 101 | 112 | 101 | 112 | 96.6 | 62.3 | 102 | 109 | 105 | viability, T/C [16]: 104%; viability, T/C [17]: 95.5%; viability, T/C [18]: 67.3%; viability, T/C [19]: 108%; viability, T/C [20]: 106%; viability, T/C [21]: 103%; viability, T/C [22]: 112%; viability, T/C [23]: 92.7%; viability, T/C [24]: 65.8%; viability, T/C [25]: 105%; viability, T/C [26]: 106%; viability, T/C [27]: 99.6%; viability, T/C [28]: 101%; viability, T/C [29]: 90.1%; viability, T/C [30]: 69.1%
CC1COCCN1c1cc(-c2ccnn2C)c2ccnc(-c3ccn[nH]3)c2n1 (stereo not given) + Cn1nnc2c(C(N)=O)ncn2c1=O | 0.565 | 0.591 | 0.679 | 0.604 | 0.392 | 93.7 | 69.3 | 56.3 | 43.7 | 39.9 | 33 | 90.6 | 72.5 | 56.4 | 44.2 | 37.8 | 32.5 | 86.8 | 71 | 56 | viability, T/C [16]: 45.9%; viability, T/C [17]: 40%; viability, T/C [18]: 31.2%; viability, T/C [19]: 88.9%; viability, T/C [20]: 71.6%; viability, T/C [21]: 54.6%; viability, T/C [22]: 45.8%; viability, T/C [23]: 39.1%; viability, T/C [24]: 33.4%; viability, T/C [25]: 82.8%; viability, T/C [26]: 63.8%; viability, T/C [27]: 51.7%; viability, T/C [28]: 42.8%; viability, T/C [29]: 38.1%; viability, T/C [30]: 32.8%
COc1cc(C)[nH]c(=O)c1CN1CCc2c(Cl)cc(C(OC)C3COC3)c(Cl)c2C1=O (stereo not given) + Cn1nnc2c(C(N)=O)ncn2c1=O | > 10 | > 10 | > 10 | > 10 | > 10 | 105 | 102 | 117 | 109 | 107 | 102 | 99.3 | 113 | 100 | 107 | 105 | 105 | 105 | 106 | 106 | viability, T/C [16]: 112%; viability, T/C [17]: 111%; viability, T/C [18]: 104%; viability, T/C [19]: 115%; viability, T/C [20]: 118%; viability, T/C [21]: 110%; viability, T/C [22]: 107%; viability, T/C [23]: 108%; viability, T/C [24]: 108%; viability, T/C [25]: 112%; viability, T/C [26]: 107%; viability, T/C [27]: 106%; viability, T/C [28]: 115%; viability, T/C [29]: 114%; viability, T/C [30]: 103%
COc1ccc([C@@H](O)c2cc(-c3ncnc4cc(N5CCOCC5)ccc34)c(F)cc2Cl)nn1 + Cn1nnc2c(C(N)=O)ncn2c1=O | 2.65 | 2.55 | 3.06 | 2.81 | 3.03 | 115 | 111 | 100 | 70.2 | 47.7 | 34.2 | 105 | 114 | 102 | 71 | 47.4 | 36.2 | 126 | 121 | 113 | viability, T/C [16]: 76%; viability, T/C [17]: 51.9%; viability, T/C [18]: 38.2%; viability, T/C [19]: 125%; viability, T/C [20]: 123%; viability, T/C [21]: 114%; viability, T/C [22]: 76.9%; viability, T/C [23]: 48.5%; viability, T/C [24]: 36.2%; viability, T/C [25]: 129%; viability, T/C [26]: 122%; viability, T/C [27]: 117%; viability, T/C [28]: 76.8%; viability, T/C [29]: 51.6%; viability, T/C [30]: 39.3%
Cc1cc(C)c(CNC(=O)c2cc(-c3ccc(CN4CCOCC4)cc3)cc3c2cnn3C2CCCC2)c(=O)[nH]1 + Cn1nnc2c(C(N)=O)ncn2c1=O | > 10 | > 10 | > 10 | > 10 | > 10 | 105 | 107 | 110 | 103 | 110 | 88 | 107 | 108 | 112 | 108 | 108 | 88.2 | 118 | 118 | 111 | viability, T/C [16]: 121%; viability, T/C [17]: 114%; viability, T/C [18]: 93.6%; viability, T/C [19]: 115%; viability, T/C [20]: 105%; viability, T/C [21]: 116%; viability, T/C [22]: 108%; viability, T/C [23]: 110%; viability, T/C [24]: 86.1%; viability, T/C [25]: 113%; viability, T/C [26]: 116%; viability, T/C [27]: 107%; viability, T/C [28]: 122%; viability, T/C [29]: 109%; viability, T/C [30]: 84.8%
[2H]c1nc(C)nc([2H])c1-c1cc(NC[C@@H](C)c2cccc3c(C(=O)NC)ccnc23)ncn1 + Cn1nnc2c(C(N)=O)ncn2c1=O | > 10 | > 10 | > 10 | > 10 | > 10 | 111 | 111 | 106 | 112 | 108 | 112 | 98.7 | 104 | 106 | 115 | 119 | 113 | 105 | 103 | 115 | viability, T/C [16]: 112%; viability, T/C [17]: 113%; viability, T/C [18]: 115%; viability, T/C [19]: 116%; viability, T/C [20]: 109%; viability, T/C [21]: 115%; viability, T/C [22]: 119%; viability, T/C [23]: 116%; viability, T/C [24]: 112%; viability, T/C [25]: 115%; viability, T/C [26]: 114%; viability, T/C [27]: 116%; viability, T/C [28]: 114%; viability, T/C [29]: 108%; viability, T/C [30]: 114%
